Results taken from US20230257484A1, “DENDROBIUM OFFICINALE OLIGOSACCHARIDE, DENDROBIUM OFFICINALE OLIGOSACCHARIDE DERIVATIVE AND PREPARATION METHOD AND USE THEREOF” (KUNMING INSTITUTE OF BOTANY, CHINESE ACADEMY OF SCIENCES, priority 2021, published 2023).

Assays:
[1] = tested on: IL-6 secretion, RAW264.7 cells; test: Immunomodulatory activity: IL-6 secretion by RAW264.7 cells (ELISA); format: cell-based; conditions: for IL-6 pg/mL: RAW264.7, 24 h
Description: (§1) Evaluation of the Immunomodulatory Activity of Dendrobium officinale Oligosaccharides RAW264.7 cells, TNF-α kit, IL-6 kit, distilled water. The logarithmic-growth RAW264.7 cells were taken and inoculated into 12-well plates after cell counting. The plate was placed in an incubator overnight, and then the cell supernatant was discarded. Different concentrations of Dendrobium officinale oligosaccharides, lipopolysaccharides and basal medium 1640 were added under aseptic operation, and the supernatant after 24 h of intervention was collected and stored at −20° C. for later use. The changes in TNF-α and IL-6 secretion were detected according to the instructions of the ELISA kit. The OD value was measured by a microplate reader with a detection wavelength of 450 nm. The OD value was substituted into the regression equation of the standard curve to calculate the increase rate of TNF-α and IL-6 secretion.

[2] = DPPH free radical scavenging; format: biochemical
Description: Experiment on the DPPH Free Radical Scavenging
DPPH, water-soluble vitamin E (Trolox) (Trolox dissolved in absolute ethanol, with a concentration of 10 mM, stored at −20° C.), pure water.
The drug to be tested was mixed with DPPH (a final concentration of 100 µM) and reacted at 30° C. for 1 h. 3 repeating wells were set, and a blank control well without drug and a Trolox positive control well were set at the same time. The OD value was measured by a microplate reader with a detection wavelength of 515 nm, and the anti-oxidation rate was calculated.
Anti-oxidation rate (%)=(1−experimental well OD515nm/blank well OD515nm)×100%.

Hacat cells = test: Survival of Hacat cells; format: cell-based, human
collagenase = test: Collagenase inhibition rate; format: biochemical
Description: Experiment on Collagenase Inhibition Rate
Protease buffer solution, protease, protease substrate, inhibitor (1,10-Phenanthroline). All reagents were stored at −20° C.
a. Background blank well: 100 μL/well of protease buffer solution.
b. Sample well: 100 μL, prepared into different concentrations.
c. Positive control well: 10 μL of protease+90 μL of protease buffer solution.
(3) After adding reagents according to the above groups, 100 μL of collagenase reaction mixture was added to each well, incubated in the dark, and then the OD value at 345 nm was measured.
The incubation time depended on the activity of the sample to be tested, and the low activity sample could be incubated for 1-3 h.
Collagenase inhibition rate (%)=(ODbackground well−ODsample well)/(ODbackground well−ODpositive control well).

RAW264.7 cells = test: Survival of RAW264.7 cells; format: cell-based
[3] = tested on: TNF-α secretion, RAW264.7 cells; test: Immunomodulatory activity: TNF-α secretion by RAW264.7 cells (ELISA); format: cell-based; conditions: for TNF-α: RAW264.7, 24 h
Description: as §1

[4] = biological target: porcine pancreatic elastase (Sus scrofa, UniProt P00772); test: Elastase inhibition rate; format: biochemical
Description: Experiment on the Elastase Inhibition Rate
Sample, positive control of catechin, Tris, HCl, porcine pancreatic elastase, N-succinyl-alanine-alanine-alanine-p-nitroaniline, DMSO.
Preparation of a sample solution: 1 mg/mL sample solution was prepared (pure water or a buffer solution was used for preparation, and if insoluble in water or the buffer solution, the sample was firstly dissolved with DMSO, and then water or the buffer solution was added. In principle, the content of DMSO should not exceed 5%).
Preparation of a positive control: 1 mg/mL catechin;
Preparation of a buffer solution: 0.1 M of Tris-HCl buffer solution, PH=8.0;
Preparation of a reaction substrate solution: N-succinyl-alanine-alanine-alanine-p-nitroaniline (AAAPVN) solution (2 mM);
Preparation: 28.5 μL of porcine pancreatic elastase solution (0.171 U/mL) was taken and dissolved in 10 mL of Tris-HCl buffer solution.
(2) The solution of 50 μL of sample, 50 μL of porcine pancreatic elastase and 100 μL of reaction substrate was added to a 96-well plate.
(3) After keeping at room temperature for 5 min, an absorbance at 420 nm was measured.
Elastase inhibition rate (%)=(1−sample OD420 nm/experimental well OD420 nm)×100%.

[5] = tested on: secretion of hyaluronic acid, Hacat cells; test: Promoting secretion of hyaluronic acid in Hacat cells (ELISA); format: cell-based, human; conditions: for Secretion of hyaluronic acid: Hacat cells, 24 h
Description: Experiment on Promoting Secretion of Hyaluronic Acid
Human immortalized […] (Hacat cells), human hyaluronic acid Elisa kit, distilled water.
A 96-well plate was inoculated with […] of cell suspension per well, and a concentration of the suspension was 4×10^5 cells/mL. After 24 h of incubation, the original culture medium was discarded, then the cells were washed with PBS for 1-2 times and the serum-free medium containing different concentrations of the drug to be tested was added thereto, and continued to incubate for 24 h. A blank control without drugs and a TGF-β positive control were set. Then the cells were lysed with ripa lysis buffer solution containing 1% PMSF, the supernatant after centrifugation was taken, and the secretion of hyaluronic acid was detected according to the method provided in the […]. The OD value was measured by a microplate reader with a detection wavelength of 450 nm. The OD value was substituted into the regression equation of the standard curve to calculate the increase rate of the secretion of hyaluronic acid.

[6] = final reaction concentration 4%
[7] = final reaction concentration 8%
[8] = final reaction concentration 11%
[9] = final reaction concentration 15%
[10] = final reaction concentration 20%
[11] = final reaction concentration 1%

Sequence of porcine pancreatic elastase (P00772 27-266): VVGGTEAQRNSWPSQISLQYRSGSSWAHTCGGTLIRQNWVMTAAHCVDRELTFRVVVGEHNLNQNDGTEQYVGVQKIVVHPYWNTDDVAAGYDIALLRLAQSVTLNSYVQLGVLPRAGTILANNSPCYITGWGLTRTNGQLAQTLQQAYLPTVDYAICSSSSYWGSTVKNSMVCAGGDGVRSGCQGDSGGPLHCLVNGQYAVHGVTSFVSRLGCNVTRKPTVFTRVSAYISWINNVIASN

For O=C(O)C1O[C@@H](O)C(O)C(O)[C@@H]1O[C@@H]1OC(CO)[C@@H](O[C@@H]2OC(CO)[C@@H](O[C@@H]3OC(CO)[C@@H](O[C@@H]4OC(CO)[C@H](O[C@@H]5OC(CO)[C@H](O)C(O)C5O)C(O)C4O)C(O)C3O)C(O)C2O)C(O)C1O (stereo partly shown) [Dendrobium officinale oligosaccharide], the “secretion of IL-6 by RAW264.7 macrophages (in words)” value ([1]; concentration of 50 μg/mL, equivalent to the positive control LPS) was “significantly increased”, the “IL-6 pg/mL” value ([1]; final reaction concentration 50 μg/mL) was 1593.01 pg/mL and the “IL-6 pg/mL” value ([1]; final reaction concentration 100 μg/mL) was 1376.42 pg/mL. The “IL-6 pg/mL” value ([1]; final reaction concentration 200 μg/mL) was 1117.33 pg/mL, the anti-oxidation rate ([2]; concentration of 15%-20%) was over 20% and the “Anti-oxidation rate (%)” value [2, 6] was 11.335%. The “Anti-oxidation rate (%)” value [2, 7] was 14.346%, the “Anti-oxidation rate (%)” value [2, 8] was 16.213% and the “Anti-oxidation rate (%)” value [2, 9] was 21.155%. For the same compound, the “Anti-oxidation rate (%)” value [2, 10] was 25.217%, the “survival rate and survival time of cells” value (Hacat cells) was “increase the survival rate and survival time” and the collagenase inhibition activity (collagenase; concentration of 0.4%-4%) was over 50%. For the same compound, the “Collagenase inhibition rate (%)” value (collagenase; final reaction concentration 0.4%) was 50.32%, the “Collagenase inhibition rate (%)” value (collagenase; final reaction concentration 0.8%) was 63.63% and the “Collagenase inhibition rate (%)” value (collagenase; [11]) was 72.20%. The “Collagenase inhibition rate (%)” value (collagenase; final reaction concentration 2%) was 84.80%, the “Collagenase inhibition rate (%)” value (collagenase; [6]) was 110.54% and the “survival rate and survival time of cells” value (RAW264.7 cells) was “increase the survival rate and survival time”. The “secretion of TNF-α by RAW264.7 macrophages (in words)” value ([3]; concentration of 3.125 μg/mL, equivalent to the positive control LPS) was “significantly increased”, the “TNF-α” value ([3]; final reaction concentration 3.125 μg/mL) was 1062.29 pg/mL and the “TNF-α” value ([3]; final reaction concentration 6.25 μg/mL) was 35.66 pg/mL. The “TNF-α” value ([3]; final reaction concentration 12.5 μg/mL) was 53.86 pg/mL, the elastase inhibition activity ([4]; concentration of 20%) was over 10% and the “Elastase inhibition rate %” value [4, 6] was −2.135%. For the same compound, the “Elastase inhibition rate %” value [4, 7] was 3.886%, the “Elastase inhibition rate %” value [4, 8] was 8.417% and the “Elastase inhibition rate %” value [4, 9] was 9.723%. For the same compound, the “Elastase inhibition rate %” value [4, 10] was 15.827%, the “activity to promote the secretion of hyaluronic acid” value ([5]; concentration of 8%-20%) was over 0.3 ng/mL and the “Secretion of hyaluronic acid” value [5, 6] was 0.2294 ng/mL. The “Secretion of hyaluronic acid” value [5, 7] was 0.5530 ng/mL, the “Secretion of hyaluronic acid” value [5, 8] was 0.3691 ng/mL and the “Secretion of hyaluronic acid” value [5, 9] was 0.4930 ng/mL. The “Secretion of hyaluronic acid” value [5, 10] was 0.5392 ng/mL.

With c1cnc2c(c1)ccc1cccnc12 [Positive inhibitor, 1,10-Phenanthroline, reference compound] the “Collagenase inhibition rate (%)” value (collagenase; [11]) was 102.23%.

With Cc1c(C)c2c(c(C)c1O)CCC(C)(C(=O)O)O2 (stereo not shown) [Trolox, reference compound] the “Anti-oxidation rate (%)” value ([2]; final reaction concentration 25 (unit not given), DPPH, 30° C., 1 h) was 95.668%.

O=C(O[C@@H]1Cc2c(O)cc(O)cc2O[C@@H]1c1ccc(O)c(O)c1)c1cc(O)c(O)c(O)c1 [epicatechin gallate, reference compound] showed an inhibition at 100 µg/mL ([4]; final reaction concentration 100 μg/ml) of 68.5%.
